Experimental data reported in publication PMC10056899, “Neuroprotective and Antiherpetic Properties of Polyphenolic Compounds from Maackia amurensis Heartwood” (Molecules, 2023).
≈ marks a conversion by molar mass, not a printed value. Where “and” joins values, the source holds several entries; their conditions need not be identical. Equal entries are not always repeated. Where two headings read alike, the source gives them in different places.

Assays:
[1] = DPPH radical scavenging assay; settings: 20 min; for IC50: read-out: DPPH Scavenging Effect IC50
Protocol: The DPPH (2,2-diphenyl-1-picrylhydrazyl) scavenging effect of polyphenolic compounds 1-6 from M. amurensis heartwood was evaluated as described previously in [40]. Stilbenes were added to DPPH solution in MeOH (10^−4 M) at a concentration range from 1 to 34 µM. The mixture was kept in the dark at room temperature for 20 min. Then, we measured the absorbance at 517 nm using a Shimadzu UV 1240 spectrophotometer (Shimadzu, Kyoto, Japan). The DPPH radical-scavenging effect (%) of the stilbenes was calculated using Equation (1): (1) DPPH scavenging effect, %=A0−Ax/A0×100, where: • A0 is the absorbance of DPPH solution without polyphenolic compounds (blank sample); • Ax is the absorbance of DPPH solution in the presence of different concentrations of polyphenolic compounds.
Quercetin and ascorbic acid were used as reference compounds. All experiments were performed in triplicate. The half maximal inhibitory concentration (IC50) for polyphenolic compounds was calculated by plotting the DPPH scavenging effect (%) against the concentrations of polyphenolic compounds. IC50 values are given as the mean ± SEM.

[2] = Ferric reducing antioxidant power (FRAP) assay; settings: 4 min, pH 3.6
Protocol: The FRAP assay was carried out as described in [41]. We prepared FRAP reagent by mixing 2.5 mL of TPTZ (2,4,6-tris(2-pyridyl)-s-triazine) solution (10 mM) in 40 mM HCl and […] of FeCl3 solution (20 mM) in acetate buffer solution (300 mM, pH 3.6). Then, we added stilbenes 1–6 to 3 mL of FRAP reagent at concentrations from 1 to 34 µM. The mixture was kept in the dark at room temperature for 4 min. Then, we measured the absorbance at 595 nm using a Shimadzu UV 1240 spectrophotometer. Equation (2) was used to calculate the FRAP values of stilbenes 1–6:(2) FRAP=CFe/Cx, where: • CFe is the concentration of Fe^2+ (µM) formed in the reaction; • Cx is the concentration of polyphenolic compounds in the reacting mixture.
The concentration of Fe^2+ (µM) formed in the reaction was determined using the calibration curve obtained for different concentrations of FeSO4·7H2O.

[3] = tested on: PQ-treated Neuro-2a cells; assay: PQ-induced neurotoxicity model, cell viability (MTT assay); assay type: cell-based, murine; settings: 10, 1, 0.1 μM, PQ 1 mM
Protocol: After 24 h of adhesion, we treated Neuro-2a cells (1 × 10^4 cells/well) with stilbenes (0.01–10 μM) for 1 h and added 1 mM of PQ (Sigma-Aldrich, St. Louis, MO, USA). Cells incubated without PQ or with PQ were used as positive and negative control, respectively. After 24 h, we measured the cell viability using MTT assay. The results are presented as percentages of the positive control value.

[4] = Cytotoxicity against Vero cells (MTT assay); assay type: cell-based; settings: African green monkey (Chlorocebus sp.)
Protocol: (§1) The HSV-1 strain L2 and Vero cell culture (kidney epithelial cells of the African green monkey Chlorocebus sp.) were obtained from the N.F. Gamaleya Federal Research Centre for Epidemiology and Microbiology (Moscow, Russia). HSV-1 was grown in Vero cells, using Dulbecco′s Modified Eagle′s Medium (DMEM, Biolot, St. Petersburg, Russia) supplemented with 10% fetal bovine serum (FBS, Biolot, St. Petersburg, Russia) and 100 U/mL of gentamycin (Dalkhimpharm, Khabarovsk, Russia), at 37 °C in a CO2 incubator. In the maintenance medium, the FBS concentration was decreased to 1%.
(§2) The tested compounds were dissolved in DMSO (Sigma, St. Louis, MO, USA) at a concentration 10 mg/mL and stored at −20 °C. For cytotoxicity and anti-HSV-1 activity determination, the stock solutions were diluted with DMEM so that the final concentration of DMSO was 0.5%.
The cytotoxicity evaluation of the studied compounds was performed using the MTT assay, as described previously. In brief, confluent Vero cells in 96-well microplates (1 × 10^4 cells/well) were incubated with tested compounds at various concentrations (1–500 μg/mL) at 37 °C for 48 h (5% CO2). Untreated cells were used as controls. Then, MTT solution (methylthiazolyltetrazolium bromide, Sigma, St. Louis, MO, USA) was added to cells at a concentration of 5 mg/mL and the cells were incubated at 37 °C for 2 h. After dissolution of formazan crystals, optical densities were read at 540 nm (Labsystems Multiskan RC, Vantaa, Finland). […] [42]. Experiments were performed in triplicate and repeated three times.

[5] = tested on: HSV-1; assay: Anti-HSV-1 activity, cytopathic effect (CPE) inhibition assay in Vero cells; assay type: cell-based, HSV-1 strain L2; settings: for IC50: read-out: IC50 (CPE assay); for SI = CC50/IC50: Vero cells, HSV-1
Protocol: as §1, §2
The anti-HSV-1 activity of stilbenes was evaluated using cytopathic effect (CPE) inhibition assay in Vero cells. We infected the monolayer of cells grown in 96-well plates (1 × 10^4 cells/well) with 100 µL/well of virus suspension (100 TCD50/mL) and we simultaneously treated it with stilbenes 1–6 (100 µL/well) at various concentrations (from 1 to 400 μg/mL) for one hour at 37 ◦C. After virus absorption, we removed the mixture of virus and stilbenes, washed the cells, and added the maintenance medium with 1% FBS. […] We used MTT assay to evaluate the antiviral activity of stilbenes. The viral inhibition rate (IR, %) was calculated according to Equation (3):(3) IR, %=Atv−Acv/Acd−Acv×100, where: • Atv is the absorbance of cells infected with virus and treated with a polyphenolic compound; • Acv is the absorbance of the untreated virus-infected cells; • Acd is the absorbance of control (untreated and non-infected) cells.
The selectivity index (SI) was calculated as the ratio of CC50 to IC50. Experiments were repeated three times.

[6] = tested on: HSV-1; assay: Anti-HSV-1 activity, HSV-1 DNA level by real-time PCR (RT-PCR); assay type: cell-based, HSV-1 strain L2; settings: 5 µg/mL, simultaneous treatment, 48 h; for 1, 4 and Maxar given on average
Protocol: The anti-HSV-1 activity of the polyphenolic compounds from M. amurensis was also studied using the real-time PCR (RT-PCR) technique (Figure 5 and Table S69, Supplementary Data). Vero cells were simultaneously infected with 100 TCD50/mL HSV-1 and treated with polyphenolic compounds 1–6 at concentrations of 50 and 5 μg/mL. After 48 h of cell incubation, viral DNA was extracted from the supernatants, and the relative level of HSV-1 DNA was determined using RT-PCR. The effect of stilbenes on the relative level of viral DNA was assessed by 2^−ΔCt method and reported as fold reduction relative to virus control, to which the value of 1.0 was assigned.
For the viral DNA extraction assay, Vero cells grown in 96-well plates were infected with HSV-1 and simultaneously treated with polyphenolic compounds and incubated at 37 °C in a CO2-incubator for 48 h. After incubation, the culture media and the cells scraped from the plate were transferred to centrifuge tubes. The cell debris was removed by centrifugation at 300× g for 10 min. Then, supernatant was collected and kept at −20 °C. The HSV-1 DNA was extracted from supernatant by using the AmpliSens® DNA-sorb-AM (K1-12-100-CE) nucleic acid extraction kit (Moscow, Russia) according to the manufacturer′s instructions. […]
The DNA HSV was detected in the obtained DNA samples using the AmpliSens® HSV I, II-FRT-100F PCR kit (Moscow, Russia) on a real-time PCR instrument Rotor-Gene Q (Qiagen, Hilden, Nordrhein-Westfalen, Germany) according to the manufacturer′s instructions. […] In the real-time PCR, the amplified product is detected with the use of fluorescent dyes. […] The threshold cycle number, Ct, was measured as the PCR cycle, where the amount of amplified target reached the threshold value. The reduction in the HSV-1 DNA levels in culture supernatants was assessed by the change in the threshold cycle (ΔCt) (Equation (4)):(4) ΔCt=Cttv−Ctcv where: • Cttv is the average Ct value for the infected samples after treatment with polyphenolic compounds; • Ctcv corresponds to the average Ct value for the virus control. […]

[7] = tested on: PQ-treated Neuro-2a cells; assay: Intracellular ROS level in PQ-treated cells (H2DCF-DA); assay type: cell-based, murine; settings: 10, 1, 0.1 μM
Protocol: After 24 h of adhesion, Neuro-2a cells (1 × 10^4 cells/well) were incubated with stilbenes (0.01–10 µM) for 1 h. After that, we added PQ (1 mM) to each well and incubated the cells for 3 h. To study ROS formation, we added 20 µL of 2,7-dichlorodihydrofluorescein diacetate solution ([…], H2DCF-DA, Molecular Probes, Eugene, OR, USA) to each well, so that the concentration was 10 µM, and kept the microplate in a CO2–incubator for additional 30 min at 37 °C.

[8] = tested on: PQ-treated Neuro-2a cells; assay: Mitochondrial membrane potential in PQ-treated cells (TMRM); assay type: cell-based, murine; settings: 10 μM
Protocol: […] Then, we added PQ (500 μM) and kept the cell suspension in a CO2-incubator for 1 h. Cells incubated without PQ and stilbenes and with PQ only were used as positive and negative control, respectively. We added the tetramethylrhodamine methyl (TMRM) (Sigma-Aldrich, St. Louis, MO, USA) solution (500 nM) to each well and kept the cells for 30 min in a CO2-incubator at 37 °C. The intensity of fluorescence was measured with a PHERAstar […] reader (BMG Labtech, Ortenberg, Germany) at λex = 540 nm and λem = 590 nm. We processed the data by MARS Data Analysis v. 3.01R2 (BMG Labtech, Ortenberg, Germany) and presented the results as percentages of the positive control value.

[9] = Human alphaherpesvirus 1, added to Vero cells simultaneously with the virus, 100 TCD50/mL

| SMILES | DPPH Scavenging Effect IC50 [1] | IC50 [1] | FRAP CFe2+(µM)/Cpolyphenolic compound (µM) [2] | FRAP CFe2+(µM)/Cpolyphenolic compound (μkg/mL) [2] | Effect on viability of PQ-treated cells [3] | CC50 at 48 h [4] | IC50 ([5]; Human alphaherpesvirus 1, Vero) | SI = CC50/IC50 [5] | IC50 [5, 9] | Reduction of relative level of HSV-1 DNA relative to virus control [6] | Effect on ROS level in PQ-treated cells [7] | Increase of mitochondrial membrane potential compared to PQ-treated cells [8] |
| --- | --- | --- | --- | --- | --- | --- | --- | --- | --- | --- | --- | --- |
| COc1ccc(-c2coc3c4c(ccc3c2=O)OC(c2cc(O)cc(O)c2)C(c2ccc(O)c(O)c2)O4)cc1 (stereo not drawn) [Compound 5, maackiasine] | 1.32 ± 0.16 µg | 2.5 ± 0.3 µM | 2.50 ± 0.38 CFe2+(µM)/Cpolyphenolic compound (µM) | 4.75 ± 0.72 CFe2+(µM)/Cpolyphenolic compound (μkg/mL) | did not show any effect | 156 µg/mL and 297 µM | 23.7 µg/mL and 45 µM | 6.6 and 6.6 ± 0.8 | – | – | – | – |
| O=C1O[C@H]([C@@H](O)CO)C(O)=C1O [Ascorbic acid, reference compound] | 5.83 ± 0.49 µg | 33.1 ± 2.8 µM | 3.58 ± 0.29 CFe2+(µM)/Cpolyphenolic compound (µM) | 20.34 ± 0.16 CFe2+(µM)/Cpolyphenolic compound (μkg/mL) | – | – | – | – | – | – | – | – |
| Nc1nc2c(ncn2COCCO)c(=O)[nH]1 [Acyclovir, reference compound] | – | – | – | – | – | > 1000 µg/mL and > 4 mM | – | 430 | 2.1 µg/mL and 9.3 µM | 4 log10 | – | – |
| O=c1c(O)c(-c2ccc(O)c(O)c2)oc2cc(O)cc(O)c12 [Quercetin, reference compound] | 2.81 ± 0.12 µg | 9.3 ± 0.4 µM | 5.53 ± 0.55 CFe2+(µM)/Cpolyphenolic compound (µM) | 18.3 ± 1.82 CFe2+(µM)/Cpolyphenolic compound (μkg/mL) | – | – | – | – | – | – | – | – |
| Oc1cc(O)cc(/C=C/c2ccc(O)c(O)c2)c1 [Compound 2, piceatannol] | 1.05 ± 0.12 µg | 4.3 ± 0.5 µM | 15.71 ± 1.43 CFe2+(µM)/Cpolyphenolic compound (µM) | 64.38 ± 5.86 CFe2+(µM)/Cpolyphenolic compound (μkg/mL) | did not show any effect | 250 ± 30 µg/mL (≈ 1020 µM) | – | 11.4 ± 1.4 | 22 µg/mL and 90.2 µM | – | – | – |
| COc1cc([C@@H]2c3c(O)cc(O)cc3[C@@H]3[C@H]2CO[C@@H]3c2ccc(O)c(O)c2)cc(OC)c1O [Compound 6, maackolin] | 0.90 ± 0.14 µg | 2 ± 0.3 µM | – | 51.11 ± 5.86 CFe2+(µM)/Cpolyphenolic compound (μkg/mL) | – | 256 µg/mL and 567 µM | 40.2 µg/mL and 88.9 µM | 6.4 and 6.4 ± 0.8 | – | – | did not decrease the ROS level | 9% |
